PubChem BioAssay (NCI)
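How tested: cells in 96-well plates exposed to compound for 48 hours at five concentrations. The concentration for 50% growth inhibition is given as GI50. TGI marks complete inhibition of growth.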

What was measured:
Assay in all cases: NCI tumour cell line growth inhibition, 48 h
[1] = tested on: HT29 colon
[2] = tested on: IGROV1 ovarian
[3] = tested on: U251 CNS
[4] = tested on: SNB-19 CNS
[5] = tested on: NCI-H23 lung
[6] = tested on: NCI-H460 lung
[7] = tested on: SF-268 CNS
[8] = tested on: 786-0 renal
[9] = tested on: HCT-15 colon
[10] = tested on: MDA-MB-435
[11] = tested on: SW-620 colon
[12] = tested on: RXF 393 renal
[13] = tested on: CCRF-CEM leukemia
[14] = tested on: MALME-3M melanoma
[15] = tested on: OVCAR-5 ovarian
[16] = tested on: LOX IMVI melanoma
[17] = tested on: OVCAR-8 ovarian
[18] = tested on: HCT-116 colon
[19] = tested on: SK-MEL-5 melanoma
[20] = tested on: SF-295 CNS
[21] = tested on: PC-3 prostate
[22] = tested on: SK-MEL-2 melanoma
[23] = tested on: MOLT-4 leukemia
[24] = tested on: NCI/ADR-RES ovarian
[25] = tested on: M14 melanoma
[26] = tested on: A498 renal
[27] = tested on: T-47D breast
[28] = tested on: TK-10 renal
[29] = tested on: K-562 leukemia

## C[C@@H]1COCCN1c1cc(C2([S@@](C)(=N)=O)CC2)nc(-c2ccnc3[nH]ccc23)n1
[1]
  GI50: 6.41 µM
  TGI: > 100 µM
[2]
  GI50: 5.11 µM
  TGI: > 71.1 µM
[3]
  GI50: 12.3 µM
  TGI: > 100 µM
[4]
  GI50: 7.72 µM
  TGI: > 100 µM
[5]
  GI50: 3.3 µM
  TGI: 45.2 µM
[6]
  GI50: 3.09 µM
  TGI: > 69.8 µM
[7]
  GI50: 9.66 µM
  TGI: > 100 µM
[8]
  GI50: 2700 nM
  TGI: 26.8 µM
[9]
  GI50: 10 µM
  TGI: > 100 µM
[10]
  GI50: 5.27 µM
  TGI: > 100 µM
[11]
  GI50: 8 µM
  TGI: > 100 µM
[12]
  GI50: 2340 nM
  TGI: 9.68 µM
[13]
  GI50: 2550 nM
  TGI: > 42.5 µM
[14]
  GI50: 7.32 µM
  TGI: 54.6 µM
[15]
  GI50: 5.11 µM
  TGI: > 100 µM
[16]
  GI50: 2140 nM
  TGI: 14 µM
[17]
  GI50: 10.9 µM
  TGI: > 100 µM
[18]
  GI50: 7.38 µM
  TGI: > 100 µM
[19]
  GI50: 6.87 µM
  TGI: 26.4 µM
[20]
  GI50: 3.35 µM
  TGI: 32.5 µM
[21]
  GI50: 10.3 µM
  TGI: > 100 µM
[22]
  GI50: 5.61 µM
  TGI: 44.9 µM
[23]
  GI50: 3.99 µM
  TGI: 62.6 µM
[24]
  GI50: 33.9 µM
  TGI: > 100 µM
[25]
  GI50: 3.52 µM
  TGI: 26.4 µM
[26]
  GI50: 716 nM
  TGI: 4.2 µM
[27]
  GI50: 3.43 µM
  TGI: 33.4 µM
[28]
  GI50: 6.71 µM
  TGI: > 71.9 µM
[29]
  GI50: 8.91 µM
